# Test results as given in patent US20240207242A1, “PHARMACEUTICAL COMPOSITION COMPRISING SPHINGOSINE-1-PHOSPHATE RECEPTOR AGONIST WITH CONTROLLED PARTICLE SIZE” (LG CHEM, LTD., priority 2021, published 2024).
# Structures can show the parent of a compound that is named as a salt.
# Experiment: Pharmacokinetic property (plasma concentration), crossover, tablets (FIG. 3)
# Type: in vivo
# Details: male beagle dogs, tablets with Samples 5 to 7
# Procedure: A crossover design of taking all three tablets (active ingredients having a particle size of Samples 5 to 7) was applied to this experimentation, and the three tablets were administered to male beagle dogs once each with a 14-day wash-out period. Each dose was taken with 50 mL of water while maintaining the fasted state for at least 14 hours. The results are represented in FIG. 3.
structure (smiles),measurement,value
"CC(C)n1nc(Cl)c2cc(COc3ccc4c(c3)CCC(CN3CCC(C(=O)O)CC3)=C4Cl)ccc21 [API, 1-[1-chloro-6-(3-chloro-1-isopropyl-1H-indazol-5-ylmethoxy)-3,4-dihydro-naphthalen-2-ylmethyl]-piperidine-4-carboxylic acid hydrochloride]",particle size d(0.9) based on Cmax to show bioequivalence in terms of pharmacokinetics,≤ 60 μm
